The values that follow come from US8530386B2, “Herbicidal compositions for tolerant or resistant sugar beet crops” (Bayer Intellectual Property GmbH, priority 1998, dated 2013).

What all share (assay type): in vivo
Series [1] deals with transgenic sugar beet. Put plainly: Damage to transgenic sugar beet, field trial (Table 4). The following applies: application in 3-leaf stage. How it is done: (§1) Transgenic sugar beet plants with resistance to one or more herbicides (A) were grown together with typical weed plants in the open in 2×5 m plots under natural field conditions; alternatively, the weed population established naturally while the sugar beet plants grew. Treatment with the compositions according to the invention and, for control purposes, with separate application of the active ingredients of the components alone, was carried out under standard conditions with a plot sprayer at an application rate of 200-300 liters of water per hectare in parallel trials in accordance with the scheme of Table 1, i.e. pre-sowing/pre-emergence, post-sowing/pre-emergence or post-emergence at the early, medium or late stage.
(§2) At 2, 4, 6 and 8 week intervals after application, the herbicidal activity of the active ingredients or active ingredient mixtures were scored visually by comparing the treated plots with untreated control plots. Damage and development of all aerial plant organs was recorded. The scoring was done using a percentage scale (100% activity=all plants dead, 50% activity=50% of the plants and green plant organs dead, 0% activity=no discernible effect=like control plot). The score values of in each case 4 plots were averaged.
(§3) In contrast, the sugar beet plants suffered no, or only negligible, damage as a consequence of the treatment with the herbicidal compositions.

The subject of series [2] is Avena fatua. Put plainly: Herbicidal action and selectivity in sugar beet crop, field trial (Table 5). As to conditions: application in the 3-5-leaf stage, scoring 4 weeks after application. How it is done:
as §1, §2, §3

Series [3] concerns transgenic sugar beet. Put plainly: Damage to transgenic sugar beet, field trial (Table 5). The following applies: application in the 3-5-leaf stage. How it is done:
as §1, §2, §3

Series [4] has as its system transgenic sugar beet. Put plainly: Damage to transgenic sugar beet - field trial (Table 2). The following applies: application in 2-4-leaf stage. How it is done:
as §1, §2, §3

The subject of series [5] is Galium aparine. Put plainly: Herbicidal action in sugar beet crop, greenhouse experiment (Table 3). As to conditions: application in the 4-5-leaf stage, scoring 3 weeks after application. From the text:
Seeds or rhizomes of monocotyledonous and dicotyledonous weeds are placed in sandy loam soil in cardboard pots, covered with soil and grown in the greenhouse under good growth conditions. […] The compositions according to the invention, which are formulated as wettable powders or as emulsion concentrates, are sprayed at various dosages onto the green plant organs at an application rate of 600 to 800 l of water per ha (converted). After the experimental plants have remained in the greenhouse for approx. 3 to 4 weeks under optimal growth conditions, the effect of the preparations is scored visually in comparison with untreated controls. The compositions according to the invention also have a good herbicidal activity against a broad spectrum of economically important grass weeds and broad-leaved weeds when applied post-emergence.
In this context, activities of the combinations according to the invention are frequently observed which exceed the formal total of the activities when the herbicides are applied individually. The observed values show, at suitably low dosages, an activity of the combinations which exceed Colby's expected values (cf. scoring in Example 1).

Series [6] relates to transgenic sugar beet. Put plainly: Damage to transgenic sugar beet, greenhouse experiment (Table 3). Details: scale not given here. The following applies: application in the 4-5-leaf stage.
The subject of series [7] is Galium aparine. As to the kind of experiment: Herbicidal action, field trial (Table 6). As to conditions: application in the 3-5-leaf stage, scoring 4 weeks after application. How it is done: as §1, §2, §3
Series [8] deals with Amaranthus retroflexus. Put plainly: Herbicidal action, field trial, sequential treatment (Table 8). As to conditions: dose 200 g A.S./ha; post-emergence at the 2-3-leaf stage; scoring 22 days after application. How it is done:
as §1
(§4) […] Damage and development of all aerial plant organs was recorded. The scoring was done using a percentage scale (100% activity=all plants dead, 50% activity=50% of the plants and green plant organs dead, 0% activity=no discernible effect=like control plot). The score values of in each case 4 plots were averaged.
as §3

The test system of series [9] is Setaria viridis. Described as above. As to conditions: dose 200 g A.S./ha; post-emergence at the 2-3-leaf stage; scoring 22 days after application. How it is done:
as §1, §4, §3

In series [10] the test system is Galium aparine. Put plainly: Herbicidal action, field trial (Table 7). The following applies: application in the 4-5-leaf stage, scoring 26 days after application. How it is done: as §1, §4, §3

Structures can show the parent of a compound that is named as a salt.

Take `CCC/C(=N\OCC)C1=C(O)CC(CC(C)SCC)CC1=O` (centres unmarked) [(B4.1), (E,Z)-2-(1-ethoxyiminobutyl)-5-[2-(ethylthio)propyl]-3-hydroxycyclohex-2-enone]: the “Damage to transgenic sugar beet” value in [1] (dose 105 g A.S./ha), in series [1] (dose 210 g A.S./ha) and in series [1] (dose 315 g A.S./ha) was 0 each time.

On to `COC(=O)[C@@H](C)Oc1ccc(Oc2ncc(C(F)(F)F)cc2Cl)cc1` [(B3.4), haloxyfop-P-methyl], for which the “Herbicidal action in % against Avena fatua” value in series [2] (dose 15 g A.S./ha) came to 20%; in series [2] (dose 30 g A.S./ha), 63%. Besides, the “Damage to transgenic sugar beet” value in [3] (dose 15 g A.S./ha) and in series [3] (dose 30 g A.S./ha) was 0 throughout.

With `CP(=O)(O)CCC(N)C(=O)O` (centres unmarked) [(A1.2), glufosinate monoammonium salt], the “Damage to transgenic sugar beet” value in series [4] (dose 37.5 g A.S./ha), in series [4] (dose 75 g A.S./ha), in series [4] (dose 150 g A.S./ha), in series [4] (dose 300 g A.S./ha), in series [6] (dose 125 g A.S./ha) and in series [6] (dose 250 g A.S./ha) was 0 in each case. The “Damage to transgenic sugar beet” value in series [6] (dose 500 g A.S./ha), in series [1] (dose 0 g A.S./ha), in series [1] (dose 10 g A.S./ha), in series [1] (dose 65 g A.S./ha), in series [3] (dose 150 g A.S./ha) and in series [3] (dose 300 g A.S./ha) was 0 in each case. The “Damage to transgenic sugar beet” value in series [3] (dose 600 g A.S./ha) was 0. For the same compound, the “Herbicidal action in % against Galium aparine” value in series [5] (dose 125 g A.S./ha) is reported as 45%; in [5] (dose 250 g A.S./ha), 60%; in series [5] (dose 500 g A.S./ha) it was 85%; in [7] (dose 250 g A.S./ha), 20%; in series [7] (dose 300 g A.S./ha), 40%; in series [7] (dose 600 g A.S./ha), 85%. For the same compound, the “Herbicidal action in % against Amaranthus retroflexus” value in [8] is listed as 55%. Further, the “Herbicidal action in % against Setaria viridis” value in [9] was determined as 60%.

Turning to `O=C(O)c1nc(Cl)ccc1Cl` [(B2.4), 3,6-dichloropyridine-2-carboxylic acid], the “Damage to transgenic sugar beet” value in series [6] (dose 50 g A.S./ha), in [6] (dose 100 g A.S./ha) and in series [6] (dose 200 g A.S./ha) was 0 in each case.

Regarding `COC(=O)Nc1cccc(NC(=O)Oc2cccc(C)c2)c1` [(B2.2), 3-methylphenyl N-[3-(methoxycarbonylamino)phenyl]carbamate], the “Herbicidal action in % against Galium aparine” value in series [5] (dose 500 g A.S./ha) turned out to be 20%; in series [5] (dose 1000 g A.S./ha) it was 30%; in series [5] (dose 2000 g A.S./ha) it was 30%; in series [10] (dose 500 g A.S./ha) it was 20%; in series [10] (dose 1000 g A.S./ha), 30%; in [10] (dose 2000 g A.S./ha) it was 30%. Further, the “Damage to transgenic sugar beet” value in series [6] (dose 500 g A.S./ha), in series [6] (dose 1000 g A.S./ha) and in [6] (dose 2000 g A.S./ha) was 0 each time.

For the compound `CC(C)N.O=C(O)CNCP(=O)(O)O` [(A2.2), monoisopropylammonium salt of glyphosate], the “Herbicidal action in % against Galium aparine” value in [10] (dose 125 g A.S./ha) is given as 10%; in series [10] (dose 250 g A.S./ha), 40%; in series [10] (dose 500 g A.S./ha), 60%; in series [10] (dose 1000 g A.S./ha), 85%.

Regarding `CCCC(=NOCC)C1=C(O)CC(C2CCCSC2)CC1=O` (centres unmarked) [(B4.2), 2-(1-ethoxyiminobuytl)-3-hydroxy-5-thian-3-ylcyclohex-2-enone], the “Damage to transgenic sugar beet” value in series [1] (dose 62.5 g A.S./ha), in series [1] (dose 125 g A.S./ha) and in series [1] (dose 250 g A.S./ha) was 0 throughout.

As for `CCOC(=O)C(C)Oc1ccc(Oc2nc3ccc(Cl)cc3o2)cc1` (racemic) [(B3.2), fenoxaprop-ethyl (rac.)], the “Damage to transgenic sugar beet” value in series [3] (dose 15 g A.S./ha), in series [3] (dose 30 g A.S./ha) and in series [3] (dose 60 g A.S./ha) was 0 each time.

Take `Cc1nnc(-c2ccccc2)c(=O)n1N` [(B1.4), 4-amino-4,5-dihydro-3-methyl-6-phenyl-1,2,4-triazin-5-one]: the “Damage to transgenic sugar beet” value in series [6] (dose 750 g A.S./ha), in [6] (dose 1500 g A.S./ha) and in [6] (dose 3000 g A.S./ha) was 0 each time.
